Measured values taken from article PMC11078990, “Identification and characterization of small molecule inhibitors of the LINE-1 retrotransposon endonuclease” (Nature Communications, 2024).
“And” between values parts separate entries of the source, which are not always exact repeats. Equal entries are not always repeated. Where two headings read alike, the source gives them in different places.

What was measured:
[1] = target: L1 EN (LINE-1 retrotransposon endonuclease domain) (Homo sapiens, UniProt O00370, N5T); experiment: Fluorescent oligonucleotide EN nicking activity assay; type: biochemical
APE1 = target: T1, APE1 (Homo sapiens, UniProt P27695); experiment: APE1 fluorescent oligonucleotide activity assay (abasic site substrate); type: biochemical; details: for activity at 25 µM: read-out: APE1 activity (%)
T1 construct: purchased New England Biolabs (NEB) M0282S

[2] = system: substrate oligonucleotide used in the EN activity assay; type: binding; parameters: key to Binding Detected? (Y/N): Binding Detected? (Y/N); Binding Detected? (Y/N)
L1 retrotransposition = experiment: HeLa dual-luciferase L1 retrotransposition assay; type: cell-based, human; details: for L1 retrotransposition, average: average of 4 replicates
[3] = system: DNA fragmentation (comet tail length) in HeLa Tet-On cells expressing EN domain; experiment: Neutral comet assay, EN domain-only constructs; type: cell-based, human
HeLa Tet-On cells = details: human
[4] = read-out: EN activity, percent of no inhibitor control
[5] = [Inhibitor] 25 μM, technical replicates 1-3, Fig. 2b source data, 25 µM
[6] = [Inhibitor] 50 μM, technical replicates 1-3, Fig. 2b source data, 50 µM
[7] = [Inhibitor] 100 μM, technical replicates 1-3, Fig. 2b source data, 100 µM
[8] = [Inhibitor] 100 μM, technical replicates 1-3, Fig. 2b source data, read-out: EN activity, percent of no inhibitor control
[9] = [Inhibitor] 250 μM, technical replicates 1-3, Fig. 2b source data, 250 µM
[10] = [Inhibitor] 500 μM, technical replicates 1-3, Fig. 2b source data, 500 µM
[11] = [Inhibitor] 500 μM, technical replicates 1-3, Fig. 2b source data, read-out: EN activity, percent of no inhibitor control
[12] = [Inhibitor] 1000 μM, technical replicates 1-3, Fig. 2b source data, 1000 µM
[13] = [Inhibitor] 1000 μM, technical replicates 1-3, Fig. 2b source data, read-out: EN activity, percent of no inhibitor control
[14] = 250 µM, Supplementary Fig. 6b, n=3
[15] = 250 µM, Supplementary Fig. 6b, replicates 1-3
[16] = compound at 25 μM, average of 3 replicates
[17] = inhibitors at 25 μM, relative to 0 μM inhibitor control, mean ± s.d., 3 independent experiments

Chain of L1 EN (LINE-1 retrotransposon endonuclease domain) (O00370 1-239 N5T): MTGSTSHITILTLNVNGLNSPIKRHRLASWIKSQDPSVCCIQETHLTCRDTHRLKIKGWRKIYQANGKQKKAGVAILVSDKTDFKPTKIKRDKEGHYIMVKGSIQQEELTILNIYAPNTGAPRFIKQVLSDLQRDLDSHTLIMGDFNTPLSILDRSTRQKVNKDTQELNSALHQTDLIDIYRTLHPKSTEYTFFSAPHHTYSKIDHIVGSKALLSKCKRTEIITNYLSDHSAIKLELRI

Compound: C/C(=N\Nc1ccc([N+](=O)[O-])cc1[N+](=O)[O-])c1ccc(-n2nncc2C(C)(C)C)cc1 [AD7]
- EN activity, percent of no inhibitor control ([1]; 5 µM): 101.994% and 98.1742% and 77.1828%
- EN activity, percent of no inhibitor control ([1]; 25 µM): 96.2152% and 94.2464%
- EN activity, percent of no inhibitor control ([1]; 50 µM): 105.792% and 87.7855%
- EN activity, percent of no inhibitor control ([1]; 100 µM): 94.7448% and 86.2812%
- EN activity, percent of no inhibitor control ([1]; 250 µM): 48.1744% and 80.4178% and 71.8348%
- EN activity, percent of no inhibitor control ([1]; 500 µM): 47.3691%
- EN activity, percent of no inhibitor control ([1]; 750 µM): 44.5063% and 42.7569%
- EN activity, percent of no inhibitor control ([1]; 1000 µM): 33.3657% and 34.4723%
- EN activity, percent of no inhibitor control ([1]; 1500 µM): 8.772% and 6.335%
- remaining activity at 25 µM [1, 4]: 86.8%
- remaining activity at 50 µM [1, 4]: 88.2%
- remaining activity at 100 µM [1, 4]: 97.9%
- remaining activity at 500 µM [1, 4]: 61.3%
- remaining activity at 750 µM [1, 4]: 34.4%
- remaining activity at 1000 µM [1, 4]: 39.3%
- remaining activity at 1500 µM [1, 4]: 7.91%
- APE1 percent activity, Replicate 1 (APE1): 123.061%
- APE1 percent activity, Replicate 2 (APE1): 113.794%
- APE1 percent activity, Replicate 3 (APE1): 119.588%
- APE1 percent activity, average (APE1): 118.815%
- Percent APE1 activity, average (APE1): 103.1%
- Percent APE1 activity, replicates (APE1): 105.066% and 99.3868% and 104.87%
- activity at 25 µM (APE1): 119 ± 4.7%
- Binding Detected? (Y/N) [2]: N
- Effect on L1 retrotransposition (L1 retrotransposition): some activity in the retrotransposition assay
- Luciferase (retrotransposition), average (L1 retrotransposition): 2.314
- Luciferase (retrotransposition), replicates (L1 retrotransposition): 2.087 and 1.842 and 2.6465 and 2.682
- Nuclei comet tail length, average (WT = 1) [3]: 0.8142
- PrestoBlue (viability), average (HeLa Tet-On cells): 16.01

Compound: O=C(Cn1nc(-c2ccc(Br)cc2)ccc1=O)NC[C@H]1CC[C@H](C(=O)O)CC1 [AD43]
- EN activity, percent of no inhibitor control ([1]; [Inhibitor] 5 μM, technical replicates 1-3, Fig. 2b source data, 5 µM): 82.7533% and 93.1928% and 121.814%
- EN activity, percent of no inhibitor control [1, 5]: 125.36% and 146.969% and 130.066%
- EN activity, percent of no inhibitor control [1, 6]: 105.857% and 111.128%
- remaining activity at 50 µM ([1]; [Inhibitor] 50 μM, technical replicates 1-3, Fig. 2b source data, read-out: EN activity, percent of no inhibitor control): 117%
- EN activity, percent of no inhibitor control [1, 7]: 119.496% and 103.054%
- remaining activity at 100 µM [1, 8]: 106%
- EN activity, percent of no inhibitor control [1, 9]: 70.4269% and 99.2352% and 82.7621%
- EN activity, percent of no inhibitor control [1, 10]: 75.3754% and 92.6354%
- remaining activity at 500 µM [1, 11]: 82.7%
- EN activity, percent of no inhibitor control [1, 12]: 36.4624% and 21.4688%
- remaining activity at 1000 µM [1, 13]: 31.2%
- EN activity, percent of no inhibitor control ([1]; [Inhibitor] 2500 μM, technical replicates 1-3, Fig. 2b source data, 2500 µM): -1.238% and -2.463% and -2.08%
- Percent APE1 activity, average (APE1; [14]): 116.3%
- Percent APE1 activity, replicates (APE1; [15]): 119.605% and 105.469% and 123.903%
- APE1 percent activity, Replicate 1 (APE1; compound at 25 μM, Replicate 1): 116.306%
- APE1 percent activity, Replicate 2 (APE1; compound at 25 μM, Replicate 2): 108.363%
- APE1 percent activity, Replicate 3 (APE1; compound at 25 μM, Replicate 3): 123.152%
- APE1 percent activity, average (APE1; [16]): 115.94%
- activity at 25 µM (APE1; [17]): 116 ± 7.4%
- Binding Detected? (Y/N) [2]: N
- Luciferase (retrotransposition), average (L1 retrotransposition; Figure 4a Graph 5, 50μM, 0μM average 4.537): 2.141
- Luciferase (retrotransposition), replicates (L1 retrotransposition; Figure 4a Graph 5, 50μM, Replicates 1-4, 0μM average 4.537): 2.066 and 2.337 and 2.1059 and 2.055
- Effect on L1 retrotransposition (L1 retrotransposition; HeLa cells): some activity in the retrotransposition assay
- PrestoBlue (viability), average (HeLa Tet-On cells; 48 h, 50 μM): 6.621

Compound: O=C(NCCCCCCNC(=O)Nc1cccc([N+](=O)[O-])c1)Nc1cccc([N+](=O)[O-])c1 [AD32]
- EN activity, percent of no inhibitor control ([1]; 1 µM): 89.1778% and 95.2749%
- EN activity, percent of no inhibitor control ([1]; 5 µM): 106.426% and 105.894%
- EN activity, percent of no inhibitor control ([1]; 20 µM): 107.498% and 97.7763% and 80.1287%
- EN activity, percent of no inhibitor control ([1]; 50 µM): 115.028% and 130.021% and 99.6138%
- EN activity, percent of no inhibitor control ([1]; 100 µM): 108.576% and 99.1955%
- EN activity, percent of no inhibitor control ([1]; 250 µM): 76.4578% and 67.7464%
- EN activity, percent of no inhibitor control ([1]; 500 µM): 42.369% and 27.0684%
- EN activity, percent of no inhibitor control ([1]; 750 µM): 20.3358% and 21.9713%
- EN activity, percent of no inhibitor control ([1]; 1000 µM): 5.092% and 3.166% and 2.499%
- remaining activity at 1 µM [1, 4]: 93.7%
- remaining activity at 5 µM [1, 4]: 103%
- remaining activity at 100 µM [1, 4]: 106%
- remaining activity at 250 µM [1, 4]: 71.9%
- remaining activity at 500 µM [1, 4]: 46.5%
- remaining activity at 750 µM [1, 4]: 20.5%
- APE1 percent activity, Replicate 1 (APE1): 105.807%
- APE1 percent activity, Replicate 2 (APE1): 106.706%
- APE1 percent activity, Replicate 3 (APE1): 111.118%
- APE1 percent activity, average (APE1): 107.877%
- Percent APE1 activity, average (APE1): 120.4%
- Percent APE1 activity, replicates (APE1): 115.512% and 123.038% and 122.705%
- activity at 25 µM (APE1): 108 ± 2.8%
- Binding Detected? (Y/N) [2]: N
- Effect on L1 retrotransposition (L1 retrotransposition): some activity in the retrotransposition assay
- Luciferase (retrotransposition), average (L1 retrotransposition): 1.01
- Luciferase (retrotransposition), replicates (L1 retrotransposition): 1.2931 and 0.8621 and 0.8883 and 0.9964
- Nuclei comet tail length, average (WT = 1) [3]: 0.6103
- PrestoBlue (viability), average (HeLa Tet-On cells): 14.98

Compound: C[C@H]1C[C@H](C)CN(CCCNc2ccc(C(=O)Nc3ccc(C(F)(F)F)cc3)cc2[N+](=O)[O-])C1 [AD9]
- EN activity, percent of no inhibitor control ([1]; [Inhibitor] 2 μM, technical replicates 1-3, Fig. 2b source data, 2 µM): 91.056% and 80.4005%
- remaining activity at 2 µM ([1]; [Inhibitor] 2 μM, technical replicates 1-3, Fig. 2b source data, read-out: EN activity, percent of no inhibitor control): 100%
- EN activity, percent of no inhibitor control ([1]; [Inhibitor] 10 μM, technical replicates 1-3, Fig. 2b source data, 10 µM): 101.14% (2×) and 73.8761%
- EN activity, percent of no inhibitor control [1, 5]: 96.0191%
- remaining activity at 25 µM ([1]; [Inhibitor] 25 μM, technical replicates 1-3, Fig. 2b source data, read-out: EN activity, percent of no inhibitor control): 109%
- EN activity, percent of no inhibitor control [1, 6]: 139.387% and 77.4751% and 117.995%
- EN activity, percent of no inhibitor control [1, 7]: 89.4903%
- remaining activity at 100 µM [1, 8]: 85.7%
- EN activity, percent of no inhibitor control [1, 9]: 70.6219%
- remaining activity at 250 µM ([1]; [Inhibitor] 250 μM, technical replicates 1-3, Fig. 2b source data, read-out: EN activity, percent of no inhibitor control): 83.4%
- EN activity, percent of no inhibitor control [1, 10]: 47.0918%
- remaining activity at 500 µM [1, 11]: 45.2%
- EN activity, percent of no inhibitor control [1, 12]: 38.5425%
- remaining activity at 1000 µM [1, 13]: 31.3%
- EN activity, percent of no inhibitor control ([1]; [Inhibitor] 2000 μM, technical replicates 1-3, Fig. 2b source data, 2000 µM): 14.4137%
- remaining activity at 2000 µM ([1]; [Inhibitor] 2000 μM, technical replicates 1-3, Fig. 2b source data, read-out: EN activity, percent of no inhibitor control): 28.7%
- Percent APE1 activity, average (APE1; [14]): 100.1%
- Percent APE1 activity, replicates (APE1; [15]): 118.893% and 92.7882% and 88.5535%
- APE1 percent activity, Replicate 1 (APE1; compound at 25 μM, Replicate 1): 119.501%
- APE1 percent activity, Replicate 2 (APE1; compound at 25 μM, Replicate 2): 114.522%
- APE1 percent activity, Replicate 3 (APE1; compound at 25 μM, Replicate 3): 113.798%
- APE1 percent activity, average (APE1; [16]): 115.94%
- activity at 25 µM (APE1; [17]): 116 ± 3.1%
- Binding Detected? (Y/N) [2]: N
- L1 retrotransposition, average (L1 retrotransposition; 0.2 μM inhibitor, Figure 4b concentration-dependent inhibition): 1.898
- L1 retrotransposition, average (L1 retrotransposition; 0.5 μM inhibitor, Figure 4b): 2.458
- L1 retrotransposition, average (L1 retrotransposition; 1 μM inhibitor, Figure 4b): 2.133
- L1 retrotransposition, average (L1 retrotransposition; 5 μM inhibitor, Figure 4b): 1.566
- L1 retrotransposition, average (L1 retrotransposition; 10 μM inhibitor, Figure 4b): 0.7154
- L1 retrotransposition, average (L1 retrotransposition; 20 μM inhibitor, Figure 4b): 1.222
- L1 retrotransposition, average (L1 retrotransposition; 35 μM inhibitor, Figure 4b): 0.4788
- Luciferase (retrotransposition), average (L1 retrotransposition; Figure 4a Graph 2, 50 μM, 0 μM average 9.679): 2.116
- Luciferase (retrotransposition), replicates (L1 retrotransposition; Figure 4a Graph 2, 50 μM, Replicates 1-4, 0 μM average 9.679): 3.949 and 1.344 and 2.584 and 0.5874
- Effect on L1 retrotransposition (L1 retrotransposition; HeLa cells): some activity in the retrotransposition assay
- PrestoBlue (viability), average (HeLa Tet-On cells; 48 h, 50 μM): 17.51
